From PubChem BioAssay (NCI)
“And” between values parts separate entries of the source, which are not always exact repeats. Equal values may be shown once.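 Cultured in 96-well plates, cells were exposed to test compound for 48 hours across five concentrations. GI50 = concentration required for 50% inhibition of growth. The concentration for full growth arrest is given as TGI.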

Experiments:
Test in all cases: NCI tumour cell line growth inhibition, 48 h
[1] = system: SK-OV-3 ovarian
[2] = system: HT29 colon
[3] = system: NCI-H226 lung
[4] = system: HCT-15 colon
[5] = system: OVCAR-4 ovarian
[6] = system: SF-539 CNS
[7] = system: HCC-2998 colon
[8] = system: SNB-75 CNS
[9] = system: 786-0 renal
[10] = system: MALME-3M melanoma

| Structure (SMILES) | GI50 [1] | TGI [1] | GI50 [2] | TGI [2] | GI50 [3] | TGI [3] | GI50 [4] | TGI [4] | GI50 [5] | TGI [5] | GI50 [6] | TGI [6] | GI50 [7] | TGI [7] | GI50 [8] | TGI [8] | GI50 [9] | TGI [9] | GI50 [10] | TGI [10] |
| --- | --- | --- | --- | --- | --- | --- | --- | --- | --- | --- | --- | --- | --- | --- | --- | --- | --- | --- | --- | --- |
| CCSC1=NC2C(N(CC)C(=O)N2CC)N1/N=C/C=C/c1ccccc1[N+](=O)[O-] (stereo not given) | 329 nM | > 100 µM | 160 nM | > 100 µM | 0.381 µM | > 100 µM | 204 nM | > 100 µM | 280 nM | > 100 µM | 80.4 nM | 0.736 µM | 362 nM | 39.6 µM | 52.8 nM | > 100 µM | 405 nM | > 100 µM | 135 nM | > 100 µM |
| CCOc1ccccc1CCN=C1NC(=O)/C(=C/c2ccc3ncccc3c2)S1 | 1810 nM | 8.46 µM | 783 nM | 3.16 µM | 4.32 µM | > 25 µM | 777 nM | > 25 µM | 1360 nM | > 22.9 µM | 751 nM | 2.95 µM | 3050 nM | 11.8 µM | 536 nM | 7.79 µM | 1930 nM | > 14.3 µM | 3000 nM | 10.6 µM |
| Cc1ccc2cnc(N)c(C#Cc3cc(C(=O)Nc4ccc(CN5CCN(C)CC5)c(C(F)(F)F)c4)cnc3C)c2c1 | 1610 nM | 4.19 µM | 139 nM | 0.776 µM | 0.538 µM | 1.74 µM | 385 nM | 1.17 µM | 436 nM | 8.36 µM | 664 nM | 1.32 µM | 1590 nM | 8.46 µM | 756 nM | 1.61 µM | 809 nM | 1.68 µM | 146 nM | 0.631 µM |
| Nc1ncnc2c1ncn2C1OC(CSCC(F)(F)F)C(O)C1O (stereo not given) | – | > 100 µM | – | > 100 µM | – | > 100 µM | – | > 100 µM | – | > 100 µM | – | > 100 µM | – | > 100 µM | – | > 100 µM | – | > 100 µM | – | > 100 µM |
| O=C(Nc1cccc(Cl)c1)Nn1cnnc1 | > 50000 nM | > 100 µM | > 50000 nM | > 100 µM | > 50 µM | > 100 µM | > 50000 nM | > 100 µM | > 50000 nM | > 100 µM | > 50000 nM | > 100 µM | > 50000 nM | > 100 µM | > 50000 nM | > 100 µM | > 50000 nM | > 100 µM | > 50000 nM | > 100 µM |
| O=C(N/N=C/c1ccccc1O)N/N=C/c1ccccc1O | – | > 100 µM | – | > 100 µM | – | > 100 µM | – | > 100 µM | – | > 100 µM | – | > 100 µM | – | > 100 µM | – | > 100 µM | – | > 100 µM | – | > 100 µM |
| CCCN1C(=O)NC(=O)C(CC)(N2C(=O)c3c(F)c(F)c(F)c(F)c3C2=O)C1=O (stereo not given) | 3960 nM | 13.2 µM | 1400 nM | 3.62 µM | 3.08 µM | 12.1 µM | 1850 nM | 6.82 µM | 2220 nM | 4.83 µM | 1920 nM | 4.14 µM | 1800 nM | 3.93 µM | 1810 nM | 4.52 µM | 2660 nM | 7.75 µM | 2060 nM | 5.31 µM |
| N#CC(N)=Nc1ccccc1 | – | > 100 µM | – | > 100 µM | – | > 100 µM | – | > 100 µM | – | > 100 µM | – | > 100 µM | – | > 100 µM | – | > 100 µM | – | > 100 µM | – | > 100 µM |
| Nc1nc2ccc(-c3nc4ccc5[nH]ncc5c4c4c3CCC4)cc2s1 | 473 nM | 2.52 µM | 191 nM | 19.8 µM | 1.1 µM | 10.1 µM | 193 nM | 7.66 µM | 835 nM | 6.25 µM | 190 nM | 4.15 µM | 1470 nM | 9.11 µM | 115 nM | 0.55 µM | 343 nM | 7.79 µM | 202 nM | 1.63 µM |
| CC(=O)c1c(O)c(C)c(O)c(Cc2c(O)c3c(c(C(=O)/C=C/c4ccccc4)c2O)OC(C)(C)C=C3)c1O | – | 15.1 µM | – | 13.1 µM | – | 23 µM | – | 14.3 µM | – | 29.4 µM | – | 26.5 µM | – | 11.1 µM | – | 7.93 µM | – | 18.7 µM | – | 12.6 µM |
| CCOC(=O)Oc1c(OC)cc(C(=O)c2ccc(OC)c(O)c2OC)cc1OC | 2880 nM | > 100 µM | 3130 nM | 22.8 µM | 4.56 µM | 40.7 µM | 420 nM | > 100 µM | 6040 nM | > 100 µM | 637 nM | 5.83 µM | 2310 nM | > 100 µM | 534 nM | > 100 µM | 475 nM | > 100 µM | 686 nM | > 100 µM |
| COC(=O)/C(=N\NC(C)(C)C)C(C(=O)OC)C(=O)C(=O)Nc1cc(Cl)ccc1Cl (stereo not given) | – | > 100 µM | – | > 100 µM | – | > 100 µM | – | > 100 µM | – | > 100 µM | – | > 100 µM | – | > 100 µM | – | > 100 µM | – | > 100 µM | – | > 100 µM |
| Cn1ncc(-c2ccc3c(=O)[nH]nc(CN)c3c2)c1-c1c(F)c(Cl)cc(OC2CC2)c1C#N | 20400 nM and 17400 nM | 40.5 µM and 33.3 µM | 11600 nM and 10300 nM | 29.6 µM and 22.7 µM | 15.7 µM and 13.2 µM | 32 µM and 27.4 µM | 14700 nM and 14300 nM | 30 µM and 28.9 µM | 14500 nM and 12600 nM | 29.1 µM and 26.2 µM | 14400 nM and 13100 nM | 28 µM and 26.7 µM | 14200 nM and 14500 nM | 28 µM and 28.3 µM | 11100 nM and 5400 nM | 23.7 µM and 20.7 µM | 13400 nM and 12300 nM | 29.5 µM and 26 µM | 14200 nM and 12200 nM | 28.8 µM and 25.5 µM |
